Data: ChEMBL document CHEMBL3108776, “Discovery of Small Molecule RIP1 Kinase Inhibitors for the Treatment of Pathologies Associated with Necroptosis” (ACS Med Chem Lett, 2013)
In brackets after ≈: the same amount, converted by molar mass.

Tests used:
[1] = biological target: T1, Receptor-interacting serine/threonine-protein kinase 1 (Homo sapiens, UniProt Q13546); assay: Displacement of (14-(2-{[3-({2-{[4-(cyanomethyl)phenyl]amino}-6-[(5-cyclopropyl-1H-pyrazol-3-yl)amino]-4-pyrimidinyl}amino)propyl]amino}-2-oxoethyl)-16,16,18,18-tetramethyl-6,7,7a,8a,9,10,16,18-octahydrobenzo[2'',3'']indolizino[8'',7'':5',6']pyrano[3',2':3,4]pyrido[1,2-a]indol-5-ium-2-sulfonate from human N-terminal His-GST-TEV-fused RIP1 kinase domain (1 to 375) expressed in baculovirus infected insect Sf9 cells preincubated for 10 mins followed by fluorescent ligand addition measured after 15 mins by fluorescence polarization assay
T1 sequence (Q13546 whole entry): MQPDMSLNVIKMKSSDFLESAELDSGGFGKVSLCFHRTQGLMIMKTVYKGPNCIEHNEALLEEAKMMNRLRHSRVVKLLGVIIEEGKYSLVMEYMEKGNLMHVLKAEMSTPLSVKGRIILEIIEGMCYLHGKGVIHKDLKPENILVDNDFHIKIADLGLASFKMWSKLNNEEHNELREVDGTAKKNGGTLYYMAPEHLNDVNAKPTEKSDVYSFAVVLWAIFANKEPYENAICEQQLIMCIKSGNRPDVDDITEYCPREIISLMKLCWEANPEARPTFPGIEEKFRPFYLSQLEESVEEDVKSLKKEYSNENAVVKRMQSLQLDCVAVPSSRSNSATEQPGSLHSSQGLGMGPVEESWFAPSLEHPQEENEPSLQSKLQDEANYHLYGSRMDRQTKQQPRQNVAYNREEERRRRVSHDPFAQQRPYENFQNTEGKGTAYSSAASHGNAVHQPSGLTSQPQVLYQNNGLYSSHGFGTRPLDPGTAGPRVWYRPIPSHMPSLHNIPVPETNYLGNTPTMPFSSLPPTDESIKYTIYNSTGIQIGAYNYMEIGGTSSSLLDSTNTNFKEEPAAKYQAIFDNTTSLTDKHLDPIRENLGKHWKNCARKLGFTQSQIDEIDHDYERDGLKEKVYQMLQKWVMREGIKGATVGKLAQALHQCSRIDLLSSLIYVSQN

[2] = biological target: T1, Receptor-interacting serine/threonine-protein kinase 1; assay: Inhibition of human N-terminal His-GST-TEV-fused RIP1 kinase domain (1 to 375) autophosphorylation expressed in baculovirus infected insect Sf9 cells after 4 hrs by ADP-Glo luminescence assay
[3] = Fraction unbound in mouse; type: ADME, organism-based; conditions: in vivo
[4] = Cmax in C57BL/6 mouse at 2 mg/kg, po measured at 4 hrs; type: ADME, organism-based; parameters: dose 2 mg/kg, route oral; conditions: in vivo
[5] = AUC in C57BL/6 mouse at 2 mg/kg, po measured at 4 hrs; type: ADME, organism-based; parameters: dose 2 mg/kg, route oral; conditions: plasma
Mus musculus [6] = assay: Antiinflammatory activity in mouse TNFalpha-induced lethal shock model assessed as protection from body temperature loss at 2 mg/kg, po administered 15 mins prior to TNFalpha challenge measured over 7 hrs relative to TNFalpha-treated control; type: functional
Mus musculus [7] = assay: Antiinflammatory activity in po dosed mouse TNFalpha-induced lethal shock model assessed as protection from body temperature loss administered 15 mins prior to TNFalpha challenge measured over 7 hrs; type: functional, organism-based
Mus musculus [8] = assay: Antiinflammatory activity in mouse TNFalpha-induced lethal shock model assessed as protection from body temperature loss at 0.2 mg/kg, po administered 15 mins prior to TNFalpha challenge measured over 7 hrs relative to TNFalpha-treated control; type: functional
[9] = Solubility of the compound; type: physicochemical
Mus musculus [10] = assay: Antiinflammatory activity in mouse TNFalpha-induced lethal shock model assessed as protection from body temperature loss at 20 mg/kg, po administered 15 mins prior to TNFalpha challenge measured over 7 hrs relative to TNFalpha-treated control; type: functional
[11] = Permeability of the compound; type: ADME; conditions: not told; read-out: permeability

SMILES	IC50 [1] [nM]	IC50 [2] [nM]	also measured
CC(=O)c1cccc(NC(=O)Nc2cccc(-c3c[nH]c4ncc(-c5ccccc5)cc34)c2)c1	13	10	–
Nc1nccc2c(-c3ccc(NC(=O)Nc4cccc(C(F)(F)F)c4F)cc3)cccc12	> 10000	4000	–
NC(=O)c1cccc(-c2cnc3[nH]cc(-c4cccc(NC(=O)Nc5cc(C(F)(F)F)ccc5F)c4)c3c2)c1	16	10	–
CC(C)(C)c1cc(NC(=O)Nc2ccc(-c3coc4ncnc(N)c34)cc2)no1	32	16	–
Nc1ncnc2occ(-c3ccc(NC(=O)Nc4cc(C(F)(F)F)ccc4F)cc3)c12 [GW770249X]	–	–	Fu [3]: 0.04%; Cmax [4]: 1100 ng/mL; AUC at 4 h [5]: 14000 ng·h/mL; Activity (Mus musculus [6]): 22%; Activity (Mus musculus [7]): Dose-dependent effect; Activity (Mus musculus [8]): 15%; solubility [9]: 13 µM (≈ 5.61 µg/mL); Activity (Mus musculus [10]): 77%; Papp [11]: 21 ×10⁻⁶ cm/s
Nc1nccc2c(-c3ccc(NC(=O)Nc4ccc(F)c(C(F)(F)F)c4)cc3)cccc12	320	10	–
O=C(Nc1cccc(-c2c[nH]c3ncc(-c4ccccc4)cc23)c1)Nc1cc(C(F)(F)F)ccc1F	200	80	–
Nc1nccc2c(-c3ccc(NC(=O)Nc4ccc(Cl)c(C(F)(F)F)c4)cc3)cccc12	40	160	–
O=C(Nc1cccc(-c2c[nH]c3ncc(-c4cn[nH]c4)cc23)c1)Nc1cc(C(F)(F)F)ccc1F	16	6	–
Nc1nccc2c(-c3ccc(NC(=O)Nc4cccc(C(F)(F)F)c4)cc3)cccc12	20	25	–
O=C(Nc1cccc(-c2c[nH]c3ncc(-c4ccccc4)cc23)c1)Nc1cccc(C(F)(F)F)c1	32	32	–
CCS(=O)(=O)c1ccc(-c2cnc3[nH]cc(-c4cccc(NC(=O)Nc5cc(C(F)(F)F)ccc5F)c4)c3c2)cc1	3.2	10	–
O=C(Nc1cccc(-c2c[nH]c3ncc(-c4cccnc4)cc23)c1)Nc1cc(C(F)(F)F)ccc1F	7.9	4	–
Nc1ccc(-c2cnc3[nH]cc(-c4cccc(NC(=O)Nc5cc(C(F)(F)F)ccc5F)c4)c3c2)cc1	32	50	–
COc1cccc(NC(=O)Nc2cccc(-c3c[nH]c4ncc(-c5ccccc5)cc34)c2)c1	32	6.3	–
O=C(Nc1cccc(-c2c[nH]c3ncc(-c4ccccc4)cc23)c1)Nc1cccc([N+](=O)[O-])c1	16	16	–
Nc1nccc2c(-c3ccc(NC(=O)Nc4cc(F)cc(C(F)(F)F)c4)cc3)cccc12	160	25	–
O=C(Nc1ccccc1)Nc1cccc(-c2c[nH]c3ncc(-c4ccccc4)cc23)c1	1300	400	–
O=C(Nc1cccc(-c2c[nH]c3ncc(-c4ccccc4)cc23)c1)NC1CCCC1	2000	500	–
CS(=O)(=O)c1cccc(-c2cnc3[nH]cc(-c4cccc(NC(=O)Nc5cc(C(F)(F)F)ccc5F)c4)c3c2)c1	63	10	–

Now from value to compound, other results behind:

IC50 [1] [nM]	IC50 [2] [nM]	SMILES	also measured
3200	630	Nc1nccc2c(-c3ccc(NC(=O)Nc4cc(C(F)(F)F)ccc4Cl)cc3)cccc12	–
100	–	Nc1ncnc2occ(-c3ccc(NC(=O)Nc4ccc5ccccc5c4)cc3)c12	–
250	200	Nc1ncnc2occ(-c3ccc(NC(=O)Nc4cccc(C(F)(F)F)c4F)cc3)c12	–
20	10	Nc1ncnc2occ(-c3ccc(NC(=O)Nc4cccc(C(F)(F)F)c4)cc3)c12 [GW795493X]	–
160	200	Nc1ncnc2occ(-c3ccc(NC(=O)Nc4cccc(Cl)c4)cc3)c12	–
> 10000	2500	Nc1ncnc2occ(-c3ccc(NC(=O)Nc4cc(C(F)(F)F)ccc4Cl)cc3)c12	–
130	63	Nc1ncnc2occ(-c3ccc(NC(=O)Nc4cc(F)cc(C(F)(F)F)c4)cc3)c12	–
13	130	Nc1nccc2c(-c3ccc(NC(=O)Nc4cc(C(F)(F)F)ccc4F)cc3)cccc12	–
160	500	Nc1ncnc2occ(-c3ccc(NC(=O)Nc4ccc(F)c(C(F)(F)F)c4)cc3)c12	–
320	32	Nc1ncnc2occ(-c3ccc(NC(=O)Nc4cc(C(F)(F)F)cc(C(F)(F)F)c4)cc3)c12 [GW795486X]	–
160	32	Nc1ncnc2occ(-c3ccc(NC(=O)Nc4ccc(Cl)c(C(F)(F)F)c4)cc3)c12	–
25	10	CCc1cccc(NC(=O)Nc2ccc(-c3coc4ncnc(N)c34)cc2)c1	–
